The text below walks through data of patent US20230270767A1, “INHIBITORS OF ENPP1 AND METHODS OF USING SAME” (The Regents of the University of California, priority 2017, published 2023).

Test [1] has as its system C3H mice. The test can be described thus: Post injury cardiac calcification after cardiac cryo injury in mice (gross inspection, micro CT, biochemical calcium measurement). It counts as in vivo, mouse. As to conditions: for post injury cardiac calcification on gross inspection: ENPP1 inhibitor by continuous infusion (mini pump) for 2 days prior to cardiac injury and 5 days after injury, compared to vehicle; for reduction in calcium deposits in the injured hearts (biochemical measurements): ENPP1 inhibitor by continuous infusion for 2 days prior to and 5 days after injury, p<0.05; for decrease in calcific deposits / calcification on micro CT with 3D reconstruction: ENPP1 inhibitor by continuous infusion for 2 days prior to cardiac injury and 5 days after injury, compared to vehicle treated animals. An excerpt: We next investigated whether cardiac fibroblasts can adopt osteoblast cell like fates in vivo and directly contribute to ectopic calcification of the myocardium. To address this question, we created three murine models of myocardial calcification and determined with lineage trace techniques whether genetically labeled cardiac fibroblasts adopted an osteoblast phenotype and contributed to heart calcification in vivo. Cardiac injury or aging in certain strains of mice (e.g. C3H/HeJ, BALB/cByJ, DBA/2J) can lead to the development of calcification within the myocardium (Glass et al., 2013);(Ivandic et al., 1996);(Korff et al., 2006). We used several different methods to induce myocardial injury in C3H strain of mice. First, we administered high dose systemic steroids daily for 10 days which is known to induce myocyte necrosis (Sparks et al., 1955). […] Finally, ischemic injury of the myocardium by ligating the left anterior descending (LAD) coronary artery, (Korff et al., 2006) led to patchy calcification of the injury region within 4 weeks of ischemic insult (Cell Stem Cell (2017) 20:1-15, the FIGURE). Consistent with the known association of fibrosis and calcification, we observed calcification only in regions where there was fibrosis (identified by Masson trichrome staining) (Cell Stem Cell (2017) 20:1-15, the FIGURE).
Calcification of the extracellular matrix is critically regulated by the balance of extracellular phosphate (Pi) and pyrophosphate (PPi) (Terkeltaub, 2001). Pyrophosphate is generated at the cell surface by the enzyme ectonucleotide pyrophosphatase/phosphodiesterase-1 (ENPP1) that breaks down ATP to AMP and PPi. Pyrophosphate is well recognized to inhibit calcium hydroxyapatite mineralization (Rutsch et al., 2011) in non-skeletal tissues, but in bone and teeth, pyrophosphate promotes mineralization by serving as a substrate for tissue non specific alkaline phosphatase that hydrolyzes pyrophosphate to generate inorganic phosphate (Terkeltaub, 2006). ENPP1 is expressed in osteoblasts, thought to regulate osteoblast maturation and bone mineralization and animals deficient in ENPP1 have decreased mineralization of long bones (Johnson et al., 2003). Considering the importance of ENPP1 in mineralization of the skeleton, we examined whether ENPP1, a gene identified by us to be differentially expressed (by RNA-seq) between calcific and non-calcified cardiac regions was contributing to ectopic cardiac calcification. We first confirmed our observation and subjected C3H mice and B6 mice to cryo-induced cardiac injury. […] Immunostaining for ENPP1 confirmed that ENPP1 was expressed in uninjured B6 hearts (Cell Stem Cell (2017) 20:1-15, the FIGURE) and was more abundant following injury (Cell Stem Cell (2017) 20:1-15, the FIGURE). […] We next determined whether cardiac fibroblasts in the injury region were a source of increased ENPP1 expression. We subjected Col1a2CreERT:R26R^tdTomato mice hearts to cardiac injury and observed abundant expression of ENPP1 by tdTomato labeled cardiac fibroblasts in calcified regions. (Cell Stem Cell (2017) 20:1-15, the FIGURE). Extracellular pyrophosphate generated by ENPP1 can induce mineralization of tissues by precipitating out as calcium pyrophosphate dihydrate (CPPD) or serving as a substrate for phosphate generation and formation of calcium hydroxyapatite. To distinguish between these two, we performed Raman spectroscopy (Chen et al., 2009) and observed that the myocardial calcific deposits comprised calcium hydroxyapatite and not pyrophosphate dihydrate (Cell Stem Cell (2017) 20:1-15, the FIGURE). PPi generated by ENPP1 can be hydrolyzed by tissue non-specific alkaline phosphatase (TNAP) to Pi. The heart is known to express TNAP and we confirmed that both injured and uninjured cardiac tissue is rich in tissue non-specific alkaline phosphatase (TNAP) (Cell Stem Cell (2017) 20:1-15, the FIGURE). […]

For test [2], the system named is C3H animals. The test can be described thus: Echocardiography of cardiac function after cardiac cryo-injury. The class given is in vivo, mouse. An excerpt: We next investigated the physiologic significance of inhibiting cardiac calcification on cardiac function. In a subset of C3H animals, we performed echocardiography to determine cardiac function prior to cardiac cryo-injury and following administration of etidronate. […] Etidronate had no effect on sham injured hearts (Cell Stem Cell (2017) 20:1-15, the FIGURE).

Setting [3] is: post injury, compared to vehicle treated control animals.

Take `CC(O)(P(=O)(O)O)P(=O)(O)O` [etidronate, etidronic acid]: the “amount of deposited calcium” value in test [1] (administered after the development of calcification, data not shown) was “did not reverse or decrease the amount of deposited calcium”. In addition, the “calcification on gross inspection or on CT scans” value in test [1] (administered one day prior to cardiac cryo injury and then daily till hearts were harvested) was “no calcification was seen”. For the same compound, the calcific phenotype entry in test [1] (administered one day prior to cardiac cryo injury and then daily till hearts were harvested, vs vehicle injected controls) was “completely rescued the calcific phenotype”. For the same compound, the “post injury cardiac function” value in test [2] (C3H animals, cardiac cryo-injury, echocardiography) is on record as “significant preservation of post injury cardiac function”. For the same compound, in test [2] (following injury), the Ejection fraction result is recorded as “substantially better” and the fractional shortening entry is “substantially better”. Also, the systolic function result in test [2] (injured animals, echocardiography) is reported as “better systolic function”. In addition, in test [2] (setting [3]), the “left ventricular end diastolic diameter (LVEDD)” value was “significantly decreased” and the “left ventricular end systolic diameter (LVESD)” value is “significantly decreased”. In addition, in test [2] (sham injured hearts), the “effect on sham injured hearts” value is “no effect”.

For `O=C(/C=C/c1ccc(O)c(O)c1)O[C@H](Cc1ccc(O)c(O)c1)C(=O)O` [SYL-001, rosmarinic acid], in test [1], the “post injury cardiac calcification on gross inspection” value is given as “decreased post injury cardiac calcification”, the “reduction in calcium deposits in the injured hearts (biochemical measurements)” value was found to be 35% and the “decrease in calcific deposits / calcification on micro CT with 3D reconstruction” value amounted to 42%.

As for `CCN(CC)c1ncnc2c1ncn2[C@@H]1O[C@H](COP(=O)([O-])OP(=O)([O-])C(Br)(Br)P(=O)([O-])O)C(O)C1O.[Na+].[Na+].[Na+]` (stereo partly shown) [ARL67156], in test [1], the “post injury cardiac calcification on gross inspection” value was “significantly inhibited calcification”, the “reduction in calcium deposits in the injured hearts (biochemical measurements)” value is reported as 79% and the “decrease in calcific deposits / calcification on micro CT with 3D reconstruction” value was determined as 85%.
